{
  "source": "paper PMC9883482",
  "about": "“TPX2 enhances the transcription factor activation of PXR and enhances the resistance of hepatocellular carcinoma cells to antitumor drugs” (Cell Death & Disease, 2023)",
  "key": {"[1]": {"test_system": "HCC cells (MHCC97-H, MHCC97-L, or HepG2)", "assay": "Sorafenib retention in cultured HCC cells, LC-MS/MS", "assay_type": "in vitro ADME, human", "settings": "48-h time point after 1 μmol/L incubation", "method": "(§1) After incubation with sorafenib was complete, the medium containing sorafenib was discarded and replaced with normal DMEM + FBS for continuous cultures. Cell samples were collected at each time point starting at 0 (when the cell samples were collected immediately after the incubation step/baseline) followed by 4, 8, 12, 24, and 48 h.\n(§2) For sorafenib-treated samples in cellular experiments, sorafenib processing and extraction of the samples were performed. HCC cell samples were re-suspended in PBS after which the organic solvent acetonitrile at a ratio of 1:1 was added. The samples were then crushed and extracted for about 30 min with vortex shaking. After that step, the samples were centrifuged at 12,000 rpm at 4 °C for about 15 to 20 min. At this time, the samples were separated into cell debris, organic, and water phases. The collected organic phase contained the sample of sorafenib in acetonitrile.\n(§3) S transition pair was detected using LC–MS/MS: (1) the parent ion was 465 Da and (2) the product ion was 252 Da."}, "[2]": {"assay": "Blood concentration assay of sorafenib, mice bearing MHCC97-L tumours", "assay_type": "in vivo", "settings": "nude, mouse, plasma, 2 mg/kg, 2 mg/kg oral", "method": "Table notes: After overexpression of TPX2 in MHCC97-L cells, the cells were inoculated with nude mice to form subcutaneous tumour tissue (the volume of tumour tissue was approximately 1 g) and then given 2 mg/kg via oral administration. After overexpression of TPX2 in MHCC97-L cells, the cells were inoculated into nude mice to form subcutaneous tumour tissue and then in situ liver tumour tissue was established. 2mg/kg via oral administration was given to nude mice. Thereafter, blood levels of sorafenib were measured."}, "[3]": {"test_system": "LS180 cells", "assay": "MTT cell survival examination", "assay_type": "cell-based", "settings": "Homo sapiens", "method": "The antitumor activity of antitumor drugs injuring HCC cells was examined by using MTT assay. After culturing the HCC cells, transfection experiments were performed, and the cells were then seeded in 96-well cell culture plates (about 8000 cells per well). […] After the cells were treated with the drug for about 48 h, a dose of […] tetrazolium (MTT) reagent was added, and cells with the MTT reagent were incubated for 5 to 6 h. After incubation with the MTT was complete, all liquid in the 96-well cell culture plate was discarded, and about 100 μl of DMSO was added to each well to dissolve the cell samples. During the process of lysing the cell samples, the cell culture plate was shaken for 15 minutes to completely lyse the cells. After the lysis step was complete, the cell culture plate was centrifuged at 12,000 rpm at 4 °C, and the supernatant was collected for evaluation.\n(§4) All statistical analyses in the presence work were performed using the GraphPad 8.0 (GraphPad Software Corporation, Armonk, NY, USA). […] For the survival analysis data, the survival curves were analyzed by the log-rank (Mantel–Cox) test to detect the P-value of the survival curve, the median survival time, and the 95% confidence interval (CI). For the co-relationship analysis, the data were analyzed by linear regression to determine the overall trend of a group of data points. […] If the slope was positive, the horizontal coordinate was positively related to the vertical coordinate, and if the slope was negative, the horizontal coordinate was negatively related to the vertical coordinate. For the multi-grouped data, the ordinary one-way analysis of variance (ANOVA) and multiple comparison methods were used. An ANOVA was used to examine whether any difference between groups could be detected. The multiple comparisons (t-test) was used to detect differences between pairs of data."}, "[4]": {"assay": "Sorafenib metabolism/clearance in cultured cells, LC-MS/MS", "assay_type": "in vitro ADME", "settings": "human", "method": "as §1, §2, §3, §4"}, "[5]": {"assay": "Sorafenib metabolism/clearance in LS180 cells", "assay_type": "in vitro ADME", "settings": "human, read-out: t1/2 values (converted)"}, "[6]": {"test_system": "advanced HCC patients", "assay": "Prognosis of advanced HCC patients who received sorafenib, by TPX2 mRNA expression", "assay_type": "in vivo, human", "settings": "advanced HCC patients on sorafenib", "method": "The human-related experimental materials involved in this study consisted of mainly cDNA samples extracted from patient-derived HCC clinical specimens or the HCC cell lines. The cDNA samples were stored in a –80 °C refrigerator and stored in aliquots. […] Baseline information was detailed in our previous publications. The cell lines use in this study included various HCC cell lines (HepG2 [a HCC cell line], MHCC97-H [a highly aggressive HCC cell line], and MHCC97-L [a lowly aggressive HCC cell line]) and a PXR positive colorectal cancer line LS180. These cells were purchased from the National Infrastructure of Cell Resources of the Chinese Academy of Medical Sciences/China Union Medical College and descripted in our previous work.\nAll statistical analyses in the presence work were performed using the GraphPad 8.0 (GraphPad Software Corporation, Armonk, NY, USA). […] For the co-relationship analysis, the data were analyzed by linear regression to determine the overall trend of a group of data points. […] If the slope was positive, the horizontal coordinate was positively related to the vertical coordinate, and if the slope was negative, the horizontal coordinate was negatively related to the vertical coordinate. […] An ANOVA was used to examine whether any difference between groups could be detected. […]"}, "[7]": {"settings": "oral, Subcutaneous MHCC97-L Control tumour"}, "[8]": {"settings": "oral, Subcutaneous MHCC97-L TPX2 tumour"}, "[9]": {"settings": "po, intrahepatic MHCC97-L Control tumour"}, "[10]": {"settings": "po, intrahepatic MHCC97-L TPX2 tumour"}},
  "data": [
    {"smiles": "CNC(=O)c1cc(Oc2ccc(NC(=O)Nc3ccc(Cl)c(C(F)(F)F)c3)cc2)ccn1", "note": "[sorafenib]", "values": [
      {"measurement": "metabolism and elimination in cultured HCC cells", "setting": "[1]", "result": "almost completely metabolized and eliminated"},
      {"measurement": "concentration at 2 h", "setting": "[2]; [7]", "result": "17.4 ± 9.73", "unit": "ng/mL"},
      {"measurement": "concentration at 2 h", "setting": "[2]; [8]", "result": "13.9 ± 6.77", "unit": "ng/mL"},
      {"measurement": "concentration at 8 h", "setting": "[2]; [7]", "result": "142 ± 26.8", "unit": "ng/mL"},
      {"measurement": "concentration at 8 h", "setting": "[2]; [8]", "result": "122 ± 27.9", "unit": "ng/mL"},
      {"measurement": "concentration at 20 h", "setting": "[2]; [7]", "result": "112 ± 30.5", "unit": "ng/mL"},
      {"measurement": "concentration at 20 h", "setting": "[2]; [8]", "result": "99.8 ± 19.6", "unit": "ng/mL"},
      {"measurement": "concentration at 40 h", "setting": "[2]; [7]", "result": "44.4 ± 16.9", "unit": "ng/mL"},
      {"measurement": "concentration at 40 h", "setting": "[2]; [8]", "result": "29.6 ± 17.2", "unit": "ng/mL"},
      {"measurement": "concentration at 2 h", "setting": "[2]; [9]", "result": "17.9 ± 8.39", "unit": "ng/mL"},
      {"measurement": "concentration at 2 h", "setting": "[2]; [10]", "result": "18.1 ± 9.63", "unit": "ng/mL"},
      {"measurement": "concentration at 8 h", "setting": "[2]; [9]", "result": "138 ± 27.9", "unit": "ng/mL"},
      {"measurement": "concentration at 8 h", "setting": "[2]; [10]", "result": "144 ± 30", "unit": "ng/mL"},
      {"measurement": "concentration at 20 h", "setting": "[2]; [9]", "result": "117 ± 29.9", "unit": "ng/mL"},
      {"measurement": "concentration at 20 h", "setting": "[2]; [10]", "result": "115 ± 29.9", "unit": "ng/mL"},
      {"measurement": "concentration at 40 h", "setting": "[2]; [9]", "result": "51.6 ± 17.2", "unit": "ng/mL"},
      {"measurement": "concentration at 40 h", "setting": "[2]; [10]", "result": "41.4 ± 19.1", "unit": "ng/mL"},
      {"measurement": "IC50", "setting": "[3]; LS180, LS180, TPX2 knockdown", "result": 250, "unit": "nM"},
      {"measurement": "IC50", "setting": "[3]; LS180, LS180, TPX2 overexpression", "result": 4300, "unit": "nM"},
      {"measurement": "IC50", "setting": "[3]; LS180, LS180, control group", "result": 910, "unit": "nM"},
      {"measurement": "half-life at 1 μmol/L", "setting": "[4]; HepG2 cells, Control, median (95% CI), read-out: t1/2 values (converted)", "result": 18.9, "unit": "h"},
      {"measurement": "half-life at 1 μmol/L", "setting": "[4]; HepG2 cells, TPX2 overexpression, median (95% CI), read-out: t1/2 values (converted)", "result": 13.7, "unit": "h"},
      {"measurement": "half-life at 1 μmol/L", "setting": "[4]; HepG2 cells, siTPX2, read-out: t1/2 values (converted)", "result": "> 24", "unit": "h"},
      {"measurement": "half-life at 1 μmol/L", "setting": "[4]; MHCC97-H cells, Control, median (95% CI), read-out: t1/2 values (converted)", "result": 15.5, "unit": "h"},
      {"measurement": "half-life at 1 μmol/L", "setting": "[4]; MHCC97-H cells, siTPX2, median (95% CI), read-out: t1/2 values (converted)", "result": 36.6, "unit": "h"},
      {"measurement": "half-life at 1 μmol/L", "setting": "[4]; MHCC97-L cells, Control, median (95% CI), read-out: t1/2 values (converted)", "result": 18.7, "unit": "h"},
      {"measurement": "half-life at 1 μmol/L", "setting": "[4]; MHCC97-L cells, TPX2 overexpression, median (95% CI), read-out: t1/2 values (converted)", "result": 11.9, "unit": "h"},
      {"measurement": "half-life at 1 μmol/L", "setting": "[5]; TPX2 knockdown", "result": 32.7, "unit": "h"},
      {"measurement": "half-life at 1 μmol/L", "setting": "[5]; TPX2 overexpression", "result": 12, "unit": "h"},
      {"measurement": "half-life at 1 μmol/L", "setting": "[5]; control of TPX2 knockdown experiment", "result": 21.8, "unit": "h"},
      {"measurement": "half-life at 1 μmol/L", "setting": "[5]; control of TPX2 overexpression experiment", "result": 21.3, "unit": "h"},
      {"measurement": "TTP median value", "setting": "[6]; TPX2 mRNA High (n = 26)", "result": 9.0, "unit": "months"},
      {"measurement": "OS median value", "setting": "[6]; TPX2 mRNA Low (n = 26)", "result": 16.0, "unit": "months"}
    ]}
  ]
}
